Among the data in patent US20250340563A1, “FUSED PYRIDAZINE DERIVATIVES AS NLRP3 INHIBITORS” (Takeda Pharmaceutical Company Limited, priority 2022, published 2025) are IC50 values, retold here.

Structures are written as SMILES.

The test deals with NLRP3 inflammasome (Homo sapiens, UniProt Q96P20). Put plainly: IL-1β assay in IFN-γ-differentiated, LPS-primed, ATP-activated THP-1 cells (ELISA). The conditions noted are these: 50 ng/mL LPS priming, 2.5 mM ATP activation, 2 hours. It counts as cell-based. How it is done: Monocytic THP-1 cells (ATCC: TIB-202) are maintained in accordance with the provider's instructions in RPMI media (Life Technologies, Cat #A10491-01); RPMI is supplemented with 10% heat inactivated fetal bovine serum (Hyclone Cat #SH30396.03). The cells are differentiated into macrophages by the addition of 25 ng/mL IFN-7 (PeproTech, Cat #300-02-100UG) for 24 hours at 37° C./5% CO2. Media is exchanged with fresh media with no FBS, and the cells are treated with 50 ng/mL LPS (priming step) for 24 hours at 37° C./5% CO2 (LPS-EK: Invivogen, Cat #tlrl-peklps). Media is exchanged with fresh media with no FBS. The cells are plated at 40,000 cells per well in 384-well flat-bottom cell culture plates (Costar 3764) containing compounds (added in 1:1000) in a 1:3.16 serial dilution series in DMSO and are incubated for 30 minutes at 37° C./5% CO2. The NLRP3 inflammasome is activated with the addition of 2.5 mM ATP (Sigma Cat #A3377) and the cells are incubated for 2 hours at 37° C./5% CO2. At the end of the incubation period, 40 μL supernatant is removed, and […] are monitored using an ELISA (Human […], R&D systems, Cat #DY201) in accordance with the manufacturer's instructions.
Chain of NLRP3 inflammasome (Q96P20 whole entry): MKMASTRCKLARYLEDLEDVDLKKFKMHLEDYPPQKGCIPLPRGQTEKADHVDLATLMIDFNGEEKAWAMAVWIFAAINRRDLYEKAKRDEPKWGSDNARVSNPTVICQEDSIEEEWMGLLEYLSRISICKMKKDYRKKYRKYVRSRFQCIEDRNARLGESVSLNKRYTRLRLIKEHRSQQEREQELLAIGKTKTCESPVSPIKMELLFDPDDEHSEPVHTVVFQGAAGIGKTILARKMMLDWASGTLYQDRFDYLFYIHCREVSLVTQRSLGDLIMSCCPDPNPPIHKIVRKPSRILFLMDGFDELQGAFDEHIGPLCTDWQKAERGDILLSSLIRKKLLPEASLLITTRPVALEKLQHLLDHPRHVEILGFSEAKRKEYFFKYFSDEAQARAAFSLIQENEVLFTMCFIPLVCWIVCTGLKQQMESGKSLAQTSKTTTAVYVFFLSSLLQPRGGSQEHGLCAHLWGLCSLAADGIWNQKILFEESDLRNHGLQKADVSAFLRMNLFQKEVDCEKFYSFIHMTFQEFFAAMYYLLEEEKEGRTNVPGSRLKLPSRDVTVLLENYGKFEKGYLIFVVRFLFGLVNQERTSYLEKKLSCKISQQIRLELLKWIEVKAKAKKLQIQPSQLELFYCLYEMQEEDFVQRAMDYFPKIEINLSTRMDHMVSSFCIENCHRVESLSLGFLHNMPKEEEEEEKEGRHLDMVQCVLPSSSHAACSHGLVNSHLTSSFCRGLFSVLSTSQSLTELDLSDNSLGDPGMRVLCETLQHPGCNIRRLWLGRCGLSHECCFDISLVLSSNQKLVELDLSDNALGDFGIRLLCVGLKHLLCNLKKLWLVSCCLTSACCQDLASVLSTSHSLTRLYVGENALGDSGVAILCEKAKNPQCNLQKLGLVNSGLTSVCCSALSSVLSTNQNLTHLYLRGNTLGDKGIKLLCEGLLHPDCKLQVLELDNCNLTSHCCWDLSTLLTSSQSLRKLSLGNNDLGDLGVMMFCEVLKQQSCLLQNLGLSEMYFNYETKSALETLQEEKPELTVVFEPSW
The IC50 values are calculated from a plot of percentage of inhibition versus the inhibitor concentration by a logistics curve fit according to: Y=[Bottom+(Top−Bottom)]/(1+10^[(Log IC50−X)·Hill Slope], where Y is the % inhibition at the inhibitor concentration, X, “Bottom” is the lowest inhibition value, i.e. 0%, “Top” is the maximum inhibition value, i.e. 100%, and the “Hill Slope” describes the slope of the sigmoidal curve between the “Bottom” and “Top” values. The curve fitting was conducted with internally developed software.
As to `COc1ccc(-c2nnc(NC3CCCC(C)(O)C3)c3ccccc23)cc1` (stereo not drawn) [Example 137, 3-((4-(4-methoxyphenyl)phthalazin-1-yl)amino)-1-methylcyclohexan-1-ol], 3800 nM corresponded to half-maximal inhibition (IC50). That is a single-digit micromolar value.

The compound `CN1CCC[C@H](Nc2nnc(-c3ccc(Cl)cc3)c3ccncc23)C1` [Example 65, (S)-1-(4-chlorophenyl)-N-(1-methylpiperidin-3-yl)pyrido[3,4-d]pyridazin-4-amine] returned an IC50 of 1220 nM.

`COc1cc(F)ccc1-c1nnc(N[C@@H]2C[C@@H](F)CN(C)C2)c2cnccc12` [Example 181, N-((3R,5R)-5-fluoro-1-methylpiperidin-3-yl)-1-(4-fluoro-2-methoxyphenyl)pyrido[3,4-d]pyridazin-4-amine]: the IC50 worked out at 1000 nM. This IC50 and that of the compound before are within 1.5-fold of each other.

`COc1ccc(-c2nnc(N[C@@H]3CCCN(CCF)C3)c3ccccc23)c(F)c1` [Example 61, (R)-4-(2-fluoro-4-methoxyphenyl)-N-(1-(2-fluoroethyl)piperidin-3-yl)phthalazin-1-amine] displayed an IC50 of 134 nM.

For the compound `CC(C)(C)c1ccc(-c2nnc(Nc3cccc(O)c3)c3ccccc23)cn1` [Example 9, 3-((4-(6-(tert-butyl)pyridin-3-yl)phthalazin-1-yl)amino)phenol], inhibition was half-maximal at 1660 nM (IC50).

Take `O[C@]1(C(F)(F)F)CCC[C@@H](Nc2nnc(-c3ccc(Cl)cc3)c3ccccc23)C1` (racemic) [Example 114]: half-maximal inhibition (IC50) required 1230 nM.

For the compound `COc1ccc(-c2nnc(Nc3cccc(O)c3)c3ncccc23)cc1` [Example 198, 3-((5-(4-methoxyphenyl)pyrido[2,3-d]pyridazin-8-yl)amino)phenol], inhibition was half-maximal at 4380 nM (IC50).

Compound `OC1CC2(C1)CC(Nc1nnc(-c3ccc(Cl)cc3)c3ccccc13)C2` (stereo not drawn) [Example 133, 6-((4-(4-chlorophenyl)phthalazin-1-yl)amino)spiro[3.3]heptan-2-ol] had an IC50 of 468 nM.

Consider `CN1CCC[C@@H](Nc2nnc(-c3ccc(C(F)(F)F)cc3O)c3ccncc23)C1` [Example 90, (R)-2-(4-((1-methylpiperidin-3-yl)amino)pyrido[3,4-d]pyridazin-1-yl)-5-(trifluoromethyl)phenol], for which the IC50 came out at 3 nM. This IC50 is about 160-fold lower than that of the compound before.

Regarding `COC1(C)CC(Nc2nnc(-c3ccc(Cl)cc3)c3ccccc23)C1(C)C` (stereo not drawn) [Example 135, 4-(4-chlorophenyl)-N-(3-methoxy-2,2,3-trimethylcyclobutyl)phthalazin-1-amine], half-maximal inhibition (IC50) required 4570 nM.

As to `CN1CCCC(Nc2nnc(-c3ccc(Cl)cc3F)c3cnccc23)C1` (stereo not drawn) [Example 69, 4-(4-chloro-2-fluorophenyl)-N-(1-methylpiperidin-3-yl)pyrido[3,4-d]pyridazin-1-amine], the IC50 is 838 nM.

Take `Clc1ccc(-c2nnc(NC3CCN(Cc4ccccc4)C3)c3ccccc23)cc1` (stereo not drawn) [Example 158, N-(1-benzylpyrrolidin-3-yl)-4-(4-chlorophenyl)phthalazin-1-amine]: half-maximal inhibition (IC50) required 2290 nM.

The compound `CN1CCc2c(-c3ccc(Cl)cc3)nnc(NC3CCCN(C)C3)c2C1` (stereo not drawn) [Example 101, 1-(4-chlorophenyl)-6-methyl-N-(1-methylpiperidin-3-yl)-5,6,7,8-tetrahydropyrido[3,4-d]pyridazin-4-amine] had an IC50 of 804 nM.

As for `Cc1cccc(-c2nnc(NC3CCCN(C)C3)c3ccccc23)c1` (stereo not drawn) [Example 18, N-(1-methylpiperidin-3-yl)-4-(m-tolyl)phthalazin-1-amine], the IC50 was determined as 1150 nM.

For the compound `CN1CCC[C@@H](Nc2nnc(-c3ccccc3O)c3c2CCOC3)C1` [Example 227, (R)-2-(1-((1-methylpiperidin-3-yl)amino)-7,8-dihydro-5H-pyrano[3,4-d]pyridazin-4-yl)phenol], the IC50 came out at 21 nM.

The compound `Clc1ccc(-c2nnc(NC3CCN(CC4CC4)C3)c3ccccc23)cc1` (stereo not drawn) [Example 161, 4-(4-chlorophenyl)-N-(1-(cyclopropylmethyl)pyrrolidin-3-yl)phthalazin-1-amine] showed an IC50 of 977 nM.

As for `CN1CCC[C@@H](Nc2nnc(-c3ccccc3C(F)F)c3ccncc23)C1` [Example 91, (R)-1-(2-(difluoromethyl)phenyl)-N-(1-methylpiperidin-3-yl)pyrido[3,4-d]pyridazin-4-amine], half-maximal inhibition (IC50) was put at 307 nM. This IC50 lies about 3.2-fold lower than the previous one.

In the case of `O[C@]1(C(F)(F)F)C[C@@H](Nc2nnc(-c3ccc(Cl)cc3)c3ccccc23)C1` [Example 117, trans-3-((4-(4-chlorophenyl)phthalazin-1-yl)amino)-1-(trifluoromethyl)cyclobutan-1-ol], inhibition was half-maximal at 624 nM (IC50). Compared with the last compound, the IC50 is about 2-fold higher.

Compound `CN1CCCC(Nc2nnc(-c3ccc(C(C)(C)C)nc3)c3ccccc23)C1` (stereo not drawn) [Example 20, 4-(6-(tert-butyl)pyridin-3-yl)-N-(1-methylpiperidin-3-yl)phthalazin-1-amine] returned an IC50 of 626 nM.

On to `CN1CCC[C@@H](Nc2nnc(-c3ccc(O)cc3)c3ccncc23)C1` [Example 23, (R)-4-(4-((1-methylpiperidin-3-yl)amino)pyrido[3,4-d]pyridazin-1-yl)phenol], for which the IC50 was 10000 nM.

For the compound `COc1ccc(-c2nnc(NC3CCCN(CCF)C3)c3ccccc23)cc1` (stereo not drawn) [Example 141, N-(1-(2-fluoroethyl)piperidin-3-yl)-4-(4-methoxyphenyl)phthalazin-1-amine], half-maximal inhibition (IC50) was put at 269 nM.

`C[C@]1(O)C[C@@H](Nc2nnc(-c3ccc(Cl)cc3O)c3cnccc23)C1` [Example 94, cis-5-chloro-2-(1-((3-hydroxy-3-methylcyclobutyl)amino)pyrido[3,4-d]pyridazin-4-yl)phenol] had an IC50 of 102 nM. This IC50 lies about 2.6-fold lower than the previous one.

`COc1ccc(-c2nnc(NCC3(N4CCCC4)CC3)c3ccccc23)cc1` [Example 131, 4-(4-methoxyphenyl)-N-((1-(pyrrolidin-1-yl)cyclopropyl)methyl)phthalazin-1-amine] returned an IC50 of 3630 nM.

The compound `COc1ccc(-c2nnc(N(C)C3CCCN(C)C3)c3ccccc23)cc1` (stereo not drawn) [Example 45, 4-(4-methoxyphenyl)-N-methyl-N-(1-methylpiperidin-3-yl)phthalazin-1-amine] had an IC50 of 4120 nM. The IC50 values of the last two compounds are within 1.5-fold of each other.

`CN1C[C@H](F)C[C@@H](Nc2nnc(-c3ccccc3O)c3c2CCOC3)C1` [Example 202, 2-(1-(((3R,5R)-5-fluoro-1-methylpiperidin-3-yl)amino)-7,8-dihydro-5H-pyrano[3,4-d]pyridazin-4-yl)phenol]: the IC50 was 210 nM.

For `Oc1cccc(Nc2nnc(-c3ccc(C4(C(F)(F)F)CC4)cc3)c3ccccc23)c1` [Example 4, 3-((4-(4-(1-(trifluoromethyl)cyclopropyl)phenyl)phthalazin-1-yl)amino)phenol], half-maximal inhibition (IC50) required 1410 nM.

In turn, `F[C@H]1CNC[C@H](Nc2nnc(-c3ccc(Cl)cc3)c3ccncc23)C1` [Example 188, 1-(4-chlorophenyl)-N-((3R,5R)-5-fluoropiperidin-3-yl)pyrido[3,4-d]pyridazin-4-amine] gave an IC50 of 692 nM.

`Clc1ccc(-c2nnc(NC3CCN4CCC3C4)c3ccccc23)cc1` (stereo not drawn) [Example 167, N-(1-azabicyclo[3.2.1]octan-4-yl)-4-(4-chlorophenyl)phthalazin-1-amine] yielded an IC50 of 3390 nM.

In turn, `CCN1CCc2c(-c3ccc(Cl)cc3)nnc(NC3CCCN(C)C3)c2C1` (stereo not drawn) [Example 102, 1-(4-chlorophenyl)-6-ethyl-N-(1-methylpiperidin-3-yl)-5,6,7,8-tetrahydropyrido[3,4-d]pyridazin-4-amine] had an IC50 of 692 nM.

As for `Clc1ccc(-c2nnc(NC3CN4CCC3C4)c3ccccc23)cc1` (stereo not drawn) [Example 166, N-(1-azabicyclo[2.2.1]heptan-3-yl)-4-(4-chlorophenyl)phthalazin-1-amine], inhibition was half-maximal at 3310 nM (IC50).

The compound `Cc1ccc(-c2nnc(Nc3cccc(O)c3)c3ccccc23)cc1` [Example 38, 3-((4-(p-tolyl)phthalazin-1-yl)amino)phenol] yielded an IC50 of 1120 nM.

Take `COC1CC(N2CCCC(Nc3nnc(-c4ccc(Cl)cc4)c4ccncc34)C2)C1` (stereo not drawn) [Example 197, 1-(4-chlorophenyl)-N-(1-(3-methoxycyclobutyl)piperidin-3-yl)pyrido[3,4-d]pyridazin-4-amine]: half-maximal inhibition (IC50) was put at 708 nM. This IC50 lies about 1.6-fold lower than the previous one.

On to `CN1CCc2c(NC3CCCN(C)C3)nnc(-c3ccc(Cl)cc3)c2C1` (stereo not drawn) [Example 99, 4-(4-chlorophenyl)-6-methyl-N-(1-methylpiperidin-3-yl)-5,6,7,8-tetrahydropyrido[3,4-d]pyridazin-1-amine], for which the IC50 amounted to 2040 nM.

In the case of `COc1ccc(-c2nnc(N[C@@H]3CCCN(C)C3)c3ccccc23)c(F)c1` [Example 53, (R)-4-(2-fluoro-4-methoxyphenyl)-N-(1-methylpiperidin-3-yl)phthalazin-1-amine], the IC50 was 40 nM.

The compound `Clc1ccc(-c2nnc(NC3CCCN(C4CCC4)C3)c3ccccc23)cc1` (stereo not drawn) [Example 145, 4-(4-chlorophenyl)-N-(1-cyclobutylpiperidin-3-yl)phthalazin-1-amine] displayed an IC50 of 132 nM. This IC50 lies about 3.3-fold higher than the previous one.

Regarding `Clc1ccc(-c2nnc(NC3CCCN(C4CCCC4)C3)c3ccccc23)cc1` (stereo not drawn) [Example 146, 4-(4-chlorophenyl)-N-(1-cyclopentylpiperidin-3-yl)phthalazin-1-amine], 56 nM corresponded to half-maximal inhibition (IC50).

Usually IC50 stands for the concentration at which inhibition is half-maximal.
